Source: ChEMBL document CHEMBL3046388, “Antifungal and insecticidal activities of daphnodorins A, B and C” (1987)

Assays:
Assay type in all cases: functional
[1] = system: Pyricularia oryzae; test: Antifungal activity against Magnaporthe oryzae inoculated in compound treated Oryza sativa leaves assessed as protective value at 27 degC at 500 ppm by spraying method
[2] = system: Pyricularia oryzae; test: Antifungal activity against Magnaporthe oryzae inoculated in compound treated Oryza sativa leaves assessed as protective value at 27 degC at 50 ppm by spraying method
[3] = system: Rhizoctonia solani; test: Antifungal activity against Rhizoctonia solani inoculated in compound treated Oryza sativa leaves assessed as protective value at 27 degC at 500 ppm by spraying method
[4] = system: Pyricularia oryzae; test: Antifungal activity against Magnaporthe oryzae inoculated in compound treated Oryza sativa leaves assessed as residual effect on leaves at 27 degC at 500 ppm by spraying method
[5] = system: Spodoptera litura; test: Insecticidal activity against third-instar larvae Spodoptera litura in compound treated cabbage leaves assessed as mortality at 500 ppm at 25 to 27 degC measured after 5 days by leaf dip method; details: foliar, 120 h
[6] = system: Phytophthora infestans; test: Antifungal activity against Phytophthora infestans inoculated in compound treated Lycopersicon esculentum MILL, leaves assessed as protective value at 27 degC at 500 ppm by spraying method
[7] = system: Callosobruchus chinensis; test: Insecticidal activity against adult Callosobruchus chinensis in compound treated ingenmame leaves assessed as mortality at 500 ppm at 25 to 27 degC measured after 5 days; details: 120 h
[8] = system: Tetranychus urticae; test: Insecticidal activity against adult and eggs of Tetranychus urticae (two-spotted spider mite) assessed as mortality at 500 ppm sprayed onto organism at 25 to 27 degC measured after 5 days; details: 120 h
[9] = system: Nilaparvata lugens; test: Insecticidal activity against third-instar larvae of Nilaparvata lugens (brown planthopper) in compound treated Oriza sativa stem assessed as mortality at 500 ppm at 25 to 27 degC measured after 5 days by stem dip method; details: 120 h
[10] = system: Pyricularia oryzae; test: Antifungal activity against Magnaporthe oryzae inoculated in compound treated Oryza sativa leaves assessed as protective value at 27 degC at 10 ppm by spraying method
[11] = system: Pyricularia oryzae; test: Antifungal activity against Magnaporthe oryzae inoculated in compound treated Oryza sativa leaves assessed as protective value at 27 degC at 200 ppm by spraying method
[12] = system: Blumeria graminis; test: Antifungal activity against Blumeria graminis inoculated in compound treated Triticum aestivum leaves assessed as protective value at 27 degC at 500 ppm by spraying method
[13] = system: Botrytis cinerea; test: Antifungal activity against Botryotinia fuckeliana inoculated in compound treated Pisum sativum var. arvense POIL. leaves assessed as protective value at 27 degC at 500 ppm by spraying method
[14] = system: Puccinia recondita; test: Antifungal activity against Puccinia recondita inoculated in compound treated Triticum aestivum leaves assessed as protective value at 27 degC at 500 ppm by spraying method

| Compound | Activity [1] [%] | Activity [2] [%] | Activity [3] [%] | Activity [4] [%] | mortality at 500 ppm [5] [%] | Activity [6] [%] | mortality at 500 ppm [7] [%] | mortality at 500 ppm [8] [%] | mortality at 500 ppm [9] [%] | Activity [10] [%] | Activity [11] [%] | Activity [12] [%] | Activity [13] [%] | Activity [14] [%] |
| --- | --- | --- | --- | --- | --- | --- | --- | --- | --- | --- | --- | --- | --- | --- |
| O=C(c1c(O)cc(O)cc1O)c1c(-c2ccc(O)cc2)oc2cc(O)c3c(c12)O[C@H](c1ccc(O)cc1)CC3 [DAPHNODORIN A] | 95 | 83 | 0 | 48 | 20 | 0 | 0 | 30 | 10 | 58 | 93 | 0 | 0 | 0 |
| O=C1c2c(O)cc(O)cc2O[C@]12c1c(cc(O)c3c1O[C@H](c1ccc(O)cc1)CC3)O[C@H]2c1ccc(O)cc1 [DAPHNODORIN C] | 90 | 69 | 0 | 40 | 10 | 0 | 10 | 11 | 0 | 40 | 89 | 0 | 0 | 0 |
| O=C(c1c(O)cc(O)cc1O)c1c(-c2ccc(O)cc2)oc2cc(O)c3c(c12)O[C@H](c1ccc(O)cc1)[C@@H](O)C3 [DAPHNODORIN B] | 79 |  | 0 |  | 30 | 0 | 30 | 45 | 0 |  |  | 0 | 0 | 0 |
